Values joined by “and” are separate entries in the source; they are usually repeats but may differ in a detail not shown here. Identical values can stand only once.
melting point	Structure (SMILES)
23 °C	CC(=O)c1ccccc1[N+](=O)[O-] [1-(2-Nitrophenyl)ethanone]
163 °C	Cc1ccccc1CNC(=S)Nc1ccccc1 [1-(2-methylbenzyl)-3-phenylthiourea]
140 °C	Cc1ccc(N2C(=O)C=CC2=O)cc1Cl [1-(3-Chloro-4-methylphenyl)-1H-pyrrole-2,5-dione]
81 °C	CC(=O)c1cccc([N+](=O)[O-])c1 [1-(3-Nitrophenyl)ethanone]
96 °C	O=[N+]([O-])c1ccc(OCC(O)CO)cc1 (stereo not given) [1-(4-nitrophenyl)glycerol]
112 °C	NCc1ccc2c(Br)cccc2c1 [1-(5-bromonaphthalen-2-yl)methanamine]
112 °C	COc1ccc2cc(C(C)O)ccc2c1 (stereo not given) [1-(6-methoxy-2-naphthyl)ethanol]
243 °C	CC(N1CCOCC1)S(=O)(=O)O (stereo not given) [1-(Morpholin-4-yl)ethanesulfonic acid]
-69 °C	CCCCCOCCCCC [1-(Pentyloxy)pentane]
33 °C	CC(O)c1c(F)c(F)c(F)c(F)c1F (stereo not given) [1-(pentafluorophenyl)ethanol]
130 °C	O=C(/C=C/c1ccccc1)n1ccnc1 [1-(trans-cinnamoyl)imidazole]
71 °C	C=CCNC(N)=S [1-Allylthiourea]
221 °C	O=C(O)c1cccc2c1nnn2Cc1ccccc1 [1-Benzyl-1H-benzotriazole-4-carboxylic acid]
-169 °C	C=C(F)Cl [1-Chloro-1-fluoroethene]
7.5 °C	Cc1ccc(Cl)cc1 [1-Chloro-4-methylbenzene]
-103 °C	CCCCOCC [1-Ethoxybutane]
70 °C	COc1ccc(Cl)c(Cl)c1Cl [1-Methoxy-2,3,4-trichlorobenzene]
-72.5 °C	C=Cc1ccc(C)cc1 [1-Methyl-4-vinylbenzene]
269 °C	Cn1cc([N+](=O)[O-])c(O)nc1=O [1-Methyl-5-nitropyrimidine-2,4(1H,3H)-dione]
-23 °C	CN1CCCC1=O [1-Methylpyrrolidin-2-one]
19 °C	CC(=O)c1ccccc1 [1-Phenylethanone]
-46 °C	NCc1ccccc1 [1-Phenylmethanamine]
122 °C	O=C1CCN(c2ccccc2)N1 [1-Phenylpyrazolidin-3-one]
167 °C	CC(=O)NNC(N)=S [1-acetyl-3-thiosemicarbazide]

melting point	Structure (SMILES)
120 °C	CC(=O)N1CCc2cc(Br)ccc21 [1-acetyl-5-bromoindoline]
117 °C	OCC12CC3CC(CC(C3)C1)C2 [1-adamantanemethanol]
254 °C	Nc1cccc2c1C(=O)c1ccccc1C2=O [1-aminoanthraquinone]
-18 °C	CCCCCCCN [1-aminoheptane]
2 °C	NC1CCc2ccccc21 (stereo not given) [1-aminoindane]
-55 °C	CCCCCN [1-aminopentane]
165 °C	Cc1c(C)c(C)c(Br)c(C)c1C [1-bromo-2,3,4,5,6-pentamethylbenzene]
60 °C	Cc1cc(C)c(C)c(Br)c1C [1-bromo-2,3,5,6-tetramethylbenzene]
27 °C	Clc1ccc(Br)c(Cl)c1 [1-bromo-2,4-dichlorobenzene]
26 °C	COc1ccc(Br)c(OC)c1 [1-bromo-2,4-dimethoxybenzene]
79 °C	Oc1ccc2ccccc2c1Br [1-bromo-2-naphthol]
-43 °C	CCc1ccc(Br)cc1 [1-bromo-4-ethylbenzene]
16 °C	CC(C)(C)c1ccc(Br)cc1 [1-bromo-4-tert-butylbenzene]
-1 °C	Brc1cccc2ccccc12 [1-bromonaphthalene] [listing 1 of 2 here]
-1 °C	Brc1cccc2ccccc12 [1-bromonaphthalene] [listing 2 of 2 here]
148 °C	Cc1ccn(C(N)=O)n1 [1-carbamoyl-3-methylpyrazole]
34 °C	COc1cc(Cl)cc(OC)c1 [1-chloro-3,5-dimethoxybenzene]
55 °C	Clc1ccc(I)cc1 [1-chloro-4-iodobenzene]
-99 °C	CCCCCCl [1-chloropentane]
-44 °C	C#CCCCCCCCC [1-decyne]
26 °C	CCCCCCCCCCCCO [1-dodecanol]
29 °C	C=CCCCCCCCCCCCCCCCCCC [1-eicosene]
47 °C	CCc1ccc(-c2ccccc2)cc1 [1-ethyl-4-phenylbenzene]
110 °C	CCN1CCNC(=O)C1=O [1-ethylpiperazine-2,3-dione]

melting point	Structure (SMILES)
-10 °C	Fc1cccc2ccccc12 [1-fluoronaphthalene]
-43 °C	CCCCCCCS [1-heptanethiol]
-119 °C	C=CCCCCC [1-heptene]
-132 °C	C#CCCCC [1-hexyne]
-44 °C	CCCCCCCCI [1-iodooctane]
70 °C	COc1ccc(Cl)c(Cl)c1Cl [1-methoxy-2,3,4-trichlorobenzene]
75 °C	Cn1c(=O)ccc2ccccc21 [1-methyl-2-quinolinone]
-41 °C	Cc1cccc(C(C)(C)C)c1 [1-methyl-3-tert-butylbenzene]
55 °C	CN1CCN(C2CCNCC2)CC1 [1-methyl-4-(4-piperidinyl)piperazine]
48 °C	Cc1ccc(-c2ccccc2)cc1 [1-methyl-4-phenylbenzene]
120 °C	Cn1c(C=O)nc2ccccc21 [1-methylbenzimidazole-2-carboxaldehyde]
135 °C	Cc1cccc2c1-c1nc3ccccc3nc1-2 [1-methylbenzo[3,4]cyclobuta[1,2-b]quinoxaline]
207 °C	OB(O)c1cccc2ccccc12 [1-naphthaleneboronic acid]
161 °C	O=C(O)c1cccc2ccccc12 [1-naphthoic acid]
45 °C	CC(=O)Oc1cccc2ccccc12 [1-naphthyl acetate]
34 °C	N#CCc1cccc2ccccc12 [1-naphthylacetonitrile]
33 °C	C#CCCCCCCCCCCCCCCCCC [1-nonadecyne]
-1 °C	CCCCCCCCCN [1-nonylamine]
-50 °C	C#CCCCCCCC [1-nonyne]
129 °C	CC(=O)O[C@H]1O[C@@H](COC(=O)c2ccccc2)[C@H](OC(=O)c2ccccc2)[C@@H]1OC(=O)c1ccccc1 [1-o-acetyl-2,3,5-tri-o-benzoyl-beta-D-ribofuranose]
32 °C	CCCCCCCCCCCCCCCCCCS [1-octadecanethiol]
18 °C	C=CCCCCCCCCCCCCCCCC [1-octadecene]
-49 °C	CCCCCCCCS [1-octanethiol]
-4 °C	C=CCCCCCCCCCCCCC [1-pentadecene]

melting point	Structure (SMILES)
-162 °C	C=CCCC [1-pentene]
-55 °C	CCCCCN [1-pentylamine]
-185 °C	C=CC [1-propene]
137 °C	CC(C)(C)N1CCNC1=O [1-tert-butyl-2-imidazolidinone]
-12 °C	C=CCCCCCCCCCCCC [1-tetradecene]
34 °C	CCCCCCCCCCCCCO [1-tridecanol]
-23 °C	C=CCCCCCCCCCCC [1-tridecene]
16 °C and 14 °C	CCCCCCCCCCCO [1-undecanol]
-25 °C	C#CCCCCCCCCC [1-undecyne]
159 °C	On1nnc2ccccc21 [1H-Benzotriazol-1-ol]
138 °C	CC1=C(C)C(C)N=N1 (stereo not given) [1H-pyrazole, 3,4,5-trimethyl-]
190 °C	CSC1N=NC(N)=C1C#N (stereo not given) [1H-pyrazole-4-carbonitrile, 3-amino-5-(methylthio)-]
98 °C	c1ccc2[nH]nnc2c1 [1h-benzotriazole]
87 °C	CC(=O)N(C)c1ccc(Cl)cc1Cl [2',4'-dichloro-n-methylacetanilide]
128 °C	COc1cc(/C=C/C(=O)c2ccccc2O)ccc1O [2',4-dihydroxy-3-methoxychalcone]
12 °C	CC(=O)c1cc(Cl)ccc1Cl [2',5'-dichloroacetophenone]
163 °C	O=c1ccn([C@@H]2C[C@H](O)[C@@H](CO)O2)c(=O)[nH]1 [2'-Deoxyuridine]
149 °C	CC(=O)Nc1cc(C)ccc1O [2'-hydroxy-5'-methylacetanilide]
33 °C	Nc1ccccc1CCc1ccccc1N [2,2'-Ethane-1,2-diyldianiline]
83 °C	O=C(C(=O)c1cccs1)c1cccs1 [2,2'-thenil]
-11 °C	CC(C)C(O)C(C)(C)C (stereo not given) [2,2,4-trimethyl-3-pentanol]

Structure (SMILES)	melting point
Cc1ccccc1N1CCNCC1 [1-(o-tolyl)piperazine]	47 °C
ClCCOCCCl [1-Chloro-2-(2-chloroethoxy)ethane]	-47 °C
CCCCl [1-Chloropropane]	-122 °C
Cc1ccccc1[N+](=O)[O-] [1-Methyl-2-nitrobenzene]	-10 °C
Nc1cccc2ccccc12 [1-aminonaphthalene]	49 °C
CC(C)CBr [1-bromo-2-methylpropane]	-117 °C and -118 °C
CCCCCCCCCCBr [1-bromodecane]	-29 °C
CCCCCCCCCCCCBr [1-bromododecane]	-10 °C
CCCCCCCCBr [1-bromooctane]	-55 °C
CCCCCCCCCCCCCl [1-chlorododecane]	-9 °C
Clc1cccc2ccccc12 [1-chloronaphthalene]	-8 °C
CCCCCCCCCl [1-chlorooctane]	-58 °C
O=[N+]([O-])c1ccc(F)cc1 [1-fluoro-4-nitrobenzene]	23 °C
Oc1ccc(Cl)cc1Cc1cc(Cl)ccc1O [2,2'-Methylenebis(4-chlorophenol)]	170 °C
Oc1ccccc1-c1ccccc1O [2,2'-dihydroxybiphenyl]	109 °C
OC(c1ccc(Cl)cc1)(c1ccc(Cl)cc1)C(Cl)(Cl)Cl [2,2,2-Trichloro-1,1-bis(4-chlorophenyl)ethanol]	78.5 °C
NC(=O)C(Cl)(Cl)Cl [2,2,2-Trichloroacetamide]	142 °C

From the Bradley open melting point set (2014)
